According to US11873321B2, “Compositions and methods for treating alzheimer's disease” (Generos Biopharma Ltd., priority 2017, dated 2024):

Columns and labels:
[1] = system: APP over-expression SH-SY5Y cell line; assay: Western blot of APP in cell lysate and in exosomes purified from the medium after 25-OHC treatment; assay type: cell-based, human; conditions: different dosage of 25-OHC
Protocol: (§1) FIGS. 8A-8C show graphs and images depicting that treatment with 25-OHC decreased exosomal APP but increases intracellular APP. SH-SY5Y cells with APP over-expression were treated with different dosage of 25-OHC.
(§2) SH-SY5Y cells over-express human APP were cultured in DMEM with 10% FBS. One day before exosome preparation, medium was changed to blank DMEM to avoid the contamination of serum exosomes. 24 hour after medium change, the mediums were collected, and spin at 200 g for 5 min to pellet down floating cells. The cell free medium was further centrifuged at 100,000 g for 1 h at 4° C., and the pellet containing exosomes was dissolved in RIPA buffer
We used APP over-expression SH-SY5Y cell line to further check if the difference in exosomal APP is due to 25-OHC. Cells were treated with different dosage of 25-OHC and both cell lysate and exosomes from medium were collected. […] In contract, as the dosage of 25-OHC increased, more APP was found in the cell lysate fraction.

[2] = system: APP over-expression SH-SY5Y cell line; assay: FACS analysis of surface APP; assay type: cell-based, human; conditions: 25-OHC treated vs control cells
Protocol: as §1
More amounts of APP were detected on the cell surface of cells overexpressing APP after 25-OHC treatment.

[3] = system: APP over-expression SH-SY5Y cell line; assay: ELISA measurement of Aβ42 in exosomes collected from cell culture medium; assay type: cell-based, human; conditions: different concentration of 25-OHC; three independent experiments
Protocol: ELISA measurement of Aβ42 in exosomes collected from cell culture medium with different concentration of 25-OHC treatment. Data are representative of three independent experiments. *p<0.05.
as §2
Quantification of Aβ42 was carried out with ELISA kit (Millipore) according to the manufactures' instructions.
Data are representative of three independent experiments.

[4] = system: APP trafficking in cells; assay: Trafficking of antibody-labelled surface APP (fixed time points, time-lapse); assay type: cell-based; conditions: 25-OHC treated vs untreated cells; in untreated cells signal disappeared within 6 hours
Protocol: FIGS. 10A-10C show images depicting increased retention time of APP inside cells after treatment with 25-OHC. […] Cells were fixed at different time points to check the distribution of APP at specific time.
We went on to check the trafficking of APP protein. Surface APP were labeled by antibody, and cells were put back to incubator and fixed at different time point for staining.

[5] = system: APP/PS1 mice; conditions: 2-month-old, injected every other day for 1 month, vs saline
Protocol: Mice at 2-month-old were injected with 25-OHC or saline as control every other day for duration of 1 month. Brains from these mice were sectioned and stained for amyloid-beta.
All experiments were performed with mice 3-4 months old and approved by the Institutional Animal Care and Use Committee of NUS.
Tissues were fixed in 4% paraformaldehyde, dehydrated, penetrated and paraffin embedded. […] For immunofluorescence (IF) or immunohistochemistry (IHC), sections were rehydrated and stained with primary antibody against Aβ (Cell signaling), followed by incubation with fluorescence-conjugated secondary antibodies (Invitrogen).

[6] = system: SH-SY5Y cells; conditions: co-treatment with 25-OHC, cells lysed 24 h later, blotted for APP

Row | SMILES | cellular APP (cell lysate, Western blot) ([1]; APP over-expression SH-SY5Y cells) | exosomal APP (Western blot) ([1]; exosomes from medium) | amount of APP on cell surface (FACS) [2] | Aβ42 in exosomes (ELISA) [3] | trafficking / retention of APP in cells [4] | amount of Aβ in brain (plaque staining) [5] | effect on 25-OHC induced increase of cellular APP [6]
1 | C[C@H](CCCC(C)(C)O)[C@H]1CC[C@H]2[C@@H]3CC=C4C[C@@H](O)CC[C@]4(C)[C@H]3CC[C@]12C [25-OHC, 25-hydroxylated cholesterol] | dosage dependent effect to increase cellular APP | decreasing exosomal APP | increased the amount of APP on cell surface | increased Aβ42 in exosomes | the trafficking of APP was slower | significant high amount of Aβ | 
2 | CC(C)(C)C(=O)OCC(=O)[C@@]1(O)CC[C@H]2[C@@H]3CCC4=CC(=O)C=C[C@]4(C)[C@H]3[C@@H](O)C[C@@]21C [prednisolone trimethylacetate] |  |  |  |  |  |  | had no effect
